Source: ChEMBL document CHEMBL1135515, “Discovery of aminopyridine-based inhibitors of bacterial enoyl-ACP reductase (FabI)” (J Med Chem, 2002)
≈ marks a conversion by molar mass, not a printed value.

What was measured:
[1] = target: T1, Enoyl-[acyl-carrier-protein] reductase [NADPH] FabI (Staphylococcus aureus, UniProt Q6GI75); experiment: Concentration required for the 50% inhibition of enoyl-ACP reductase from Staphylococcus aureus was determined.
T1 sequence (Q6GI75 whole entry): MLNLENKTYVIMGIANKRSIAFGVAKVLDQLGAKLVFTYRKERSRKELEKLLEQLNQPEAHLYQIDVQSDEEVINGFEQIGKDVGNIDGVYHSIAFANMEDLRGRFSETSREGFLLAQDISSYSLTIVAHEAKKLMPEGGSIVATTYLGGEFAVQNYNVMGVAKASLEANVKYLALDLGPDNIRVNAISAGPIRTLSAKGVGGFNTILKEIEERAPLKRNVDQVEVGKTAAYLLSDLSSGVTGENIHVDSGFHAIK

Enterococcus faecalis [2] = experiment: Minimum concentration required for inhibition of Enterococcus faecalis was determined.; format: functional
Haemophilus influenzae [3] = experiment: Minimum concentration required for inhibition of Haemophilus influenzae was determined.; format: functional
Staphylococcus aureus [4] = experiment: Minimum concentration required for inhibition of Staphylococcus aureus was determined.; format: functional
Streptococcus pneumoniae [5] = experiment: Minimum concentration required for inhibition of Streptococcus pneumoniae was determined.; format: functional
[6] = Concentration required for the 50% inhibition of enoyl-ACP reductase from Haemophilus influenzae was determined.
Moraxella catarrhalis = experiment: Minimum concentration required for inhibition of Moraxella catarrhalis was determined.; format: functional
Haemophilus influenzae [7] = experiment: Antibacterial activity was measured against Haemophilus influenzae; format: functional
Streptococcus pneumoniae [8] = experiment: Minimum inhibitory concentration against growth of Streptococcus pneumoniae; format: functional
[9] = Inhibitory concentration against Streptococcus pneumoniae Enoyl-ACP reductase
[10] = Compound was measured for the inhibition of enoyl-ACP reductase from Staphylococcus aureus
Staphylococcus aureus [11] = experiment: Antibacterial activity was measured against Staphylococcus aureus; format: functional
Enterococcus faecalis [12] = experiment: Minimum inhibitory concentration against growth of Enterococcus faecalis; format: functional
[13] = Compound was measured for the inhibition of enoyl-ACP reductase from Haemophilus influenzae
Escherichia coli = experiment: Minimum concentration required for inhibition of Escherichia coli AcrAB was determined.; format: functional
[14] = Concentration required for the 50% inhibition of Enoyl-ACP reductase from Streptococcus pneumoniae was determined.
Haemophilus influenzae [15] = experiment: Minimum concentration required for the inhibition of Haemophilus influenzae was determined.; format: functional
Staphylococcus aureus [16] = experiment: Minimum concentration required for the inhibition of Staphylococcus aureus was determined.; format: functional

SMILES	IC50 [1]	MIC (Enterococcus faecalis [2])	MIC (Haemophilus influenzae [3])	MIC (Staphylococcus aureus [4])	MIC (Streptococcus pneumoniae [5])	IC50 [6]	other results
CN(Cc1cc2ccccc2n1C)C(=O)CCc1ccc(N)nc1	93.7 µM	> 64 µg/mL	> 64 µg/mL	> 64 µg/mL	> 64 µg/mL	97.4 µM	
CN(Cc1cc2ccccc2n1C)C(=O)c1ccccc1	> 100 µM	> 64 µg/mL	> 64 µg/mL	> 64 µg/mL	> 64 µg/mL	> 100 µM	
CN(Cc1cc2ccccc2n1C)C(=O)/C=C/c1ccc(N)cc1							MIC (Haemophilus influenzae [7]): > 64 µg/mL; MIC (Streptococcus pneumoniae [8]): > 64 µg/mL; IC50 [9]: > 30 µM; IC50 [10]: > 11.2 µM; MIC (Staphylococcus aureus [11]): 32 µg/mL (≈ 100 µM); MIC (Enterococcus faecalis [12]): > 64 µg/mL; IC50 [13]: 9 µM
CC(=O)N(C)Cc1cccc(C(=O)N(C)Cc2cc3ccccc3n2C)c1	107 µM	> 64 µg/mL	> 64 µg/mL	> 64 µg/mL	> 64 µg/mL	121 µM	
CN(Cc1cc2ccccc2n1C)C(=O)c1ccc2c(c1)CN(C)C(=O)[C@H](C(=O)O)N2	676 µM	> 64 µg/mL	> 64 µg/mL	> 64 µg/mL	> 64 µg/mL	> 100 µM	
CN(Cc1cc2ccccc2n1C)C(=O)/C=C/c1ccc(N)nc1	2.4 µM	> 64 µg/mL	> 64 µg/mL	0.5 µg/mL (≈ 1.56 µM)	> 64 µg/mL	4.2 µM	MIC (Escherichia coli): 8 µg/mL (≈ 25 µM); MIC (Moraxella catarrhalis): 4 µg/mL (≈ 12.5 µM)
CN(Cc1cc2ccccc2n1C)C(=O)c1ccc(N)nc1	> 100 µM	> 64 µg/mL	> 64 µg/mL	> 64 µg/mL	> 64 µg/mL	19.2 µM	
Oc1cc(Cl)ccc1Oc1ccc(Cl)cc1Cl [TRICLOSAN]							IC50 [14]: > 30 µM; MIC (Haemophilus influenzae [15]): ≤ 0.06 µg/mL; MIC (Staphylococcus aureus [16]): ≤ 0.06 µg/mL

More lines, main results first:

IC50 [1]	MIC (Enterococcus faecalis [2])	MIC (Haemophilus influenzae [3])	MIC (Staphylococcus aureus [4])	MIC (Streptococcus pneumoniae [5])	IC50 [6]	SMILES	other results
6.7 µM	> 64 µg/mL	> 64 µg/mL	16 µg/mL (≈ 42.3 µM)	> 64 µg/mL	4.7 µM	CC(=O)N(C)Cc1cc(C(=O)N(C)Cc2cc3ccccc3n2C)ccc1N	
21.2 µM	> 64 µg/mL	> 64 µg/mL	16 µg/mL (≈ 42.5 µM)	> 64 µg/mL	2.5 µM	CN1Cc2cc(C(=O)N(C)Cc3cc4ccccc4n3C)ccc2NCC1=O	
16.5 µM	> 64 µg/mL	> 64 µg/mL	> 64 µg/mL	> 64 µg/mL	6.9 µM	COC(=O)CC1Nc2ccc(C(=O)N(C)Cc3cc4ccccc4n3C)cc2CN(C)C1=O (stereo unspecified)	MIC (Moraxella catarrhalis): 32 µg/mL (≈ 71.3 µM)
2.2 µM	> 64 µg/mL	> 64 µg/mL	2 µg/mL (≈ 6.22 µM)	> 64 µg/mL	4.3 µM	CN(Cc1cc2ccccc2n1C)C(=O)/C=C/c1cnc(N)nc1	
14.2 µM	> 64 µg/mL	> 64 µg/mL	16 µg/mL (≈ 52.4 µM)	> 64 µg/mL	15.2 µM	CN(Cc1cc2ccccc2n1C)C(=O)/C=C/c1cccnc1	
9.9 µM	> 64 µg/mL	> 64 µg/mL	> 64 µg/mL	> 64 µg/mL	5.1 µM	COC(=O)C[C@H]1Nc2ccc(C(=O)N(C)Cc3cc4ccccc4n3C)cc2CN(C)C1=O	
16.3 µM	> 64 µg/mL	> 64 µg/mL	32 µg/mL (≈ 109 µM)	> 64 µg/mL	2.6 µM	CN(Cc1cc2ccccc2n1C)C(=O)c1ccc(N)cc1	
